Measured values published in ChEMBL document CHEMBL1147177, “Identification of tyrosinase inhibitors from Marrubium velutinum and Marrubium cylleneum” (Bioorg Med Chem, 2007).

Tests used:
[1] = biological target: T1, Tyrosinase (Agaricus bisporus) (UniProt O42713); assay: Inhibition of diphenolase activity of mushroom tyrosinase at 0.231 mM
T1 sequence (whole entry): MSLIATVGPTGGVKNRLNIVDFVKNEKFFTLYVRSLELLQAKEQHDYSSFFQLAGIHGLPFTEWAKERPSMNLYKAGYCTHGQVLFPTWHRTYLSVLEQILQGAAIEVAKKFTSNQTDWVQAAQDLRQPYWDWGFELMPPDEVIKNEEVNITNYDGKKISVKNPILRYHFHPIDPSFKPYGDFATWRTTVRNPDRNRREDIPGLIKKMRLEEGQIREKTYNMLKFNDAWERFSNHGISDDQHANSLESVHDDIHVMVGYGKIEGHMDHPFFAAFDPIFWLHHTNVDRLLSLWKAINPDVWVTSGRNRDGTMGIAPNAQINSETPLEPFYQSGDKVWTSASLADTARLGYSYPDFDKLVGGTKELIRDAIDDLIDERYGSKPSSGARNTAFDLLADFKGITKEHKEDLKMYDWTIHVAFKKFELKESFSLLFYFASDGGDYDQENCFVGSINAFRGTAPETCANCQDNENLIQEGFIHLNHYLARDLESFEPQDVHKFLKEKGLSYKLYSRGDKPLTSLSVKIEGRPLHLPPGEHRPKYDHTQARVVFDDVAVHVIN

[2] = biological target: T1, Tyrosinase (Agaricus bisporus); assay: Inhibition of diphenolase activity of mushroom tyrosinase at 0.053 mM
[3] = biological target: T1, Tyrosinase (Agaricus bisporus); assay: Inhibition of diphenolase activity of mushroom tyrosinase at 0.056 mM
[4] = biological target: T1, Tyrosinase (Agaricus bisporus); assay: Inhibition of diphenolase activity of mushroom tyrosinase at 0.052 mM
[5] = biological target: T1, Tyrosinase (Agaricus bisporus); assay: Inhibition of diphenolase activity of mushroom tyrosinase at 0.041 mM
[6] = biological target: T1, Tyrosinase (Agaricus bisporus); assay: Inhibition of diphenolase activity of mushroom tyrosinase at 0.035 mM
[7] = biological target: T1, Tyrosinase (Agaricus bisporus); assay: Inhibition of diphenolase activity of mushroom tyrosinase at 0.064 mM
[8] = biological target: T1, Tyrosinase (Agaricus bisporus); assay: Inhibition of diphenolase activity of mushroom tyrosinase at 0.074 mM
[9] = biological target: T1, Tyrosinase (Agaricus bisporus); assay: Inhibition of diphenolase activity of mushroom tyrosinase at 0.055 mM
[10] = biological target: T1, Tyrosinase (Agaricus bisporus); assay: Inhibition of diphenolase activity of mushroom tyrosinase at 0.011 mM
[11] = biological target: T1, Tyrosinase (Agaricus bisporus); assay: Inhibition of diphenolase activity of mushroom tyrosinase at 0.051 mM
[12] = biological target: T1, Tyrosinase (Agaricus bisporus); assay: Inhibition of diphenolase activity of mushroom tyrosinase at 0.093 mM
[13] = biological target: T1, Tyrosinase (Agaricus bisporus); assay: Inhibition of diphenolase activity of mushroom tyrosinase at 0.049 mM
[14] = biological target: T1, Tyrosinase (Agaricus bisporus); assay: Inhibition of diphenolase activity of mushroom tyrosinase at 0.036 mM
[15] = biological target: T1, Tyrosinase (Agaricus bisporus); assay: Inhibition of diphenolase activity of mushroom tyrosinase at 0.070 mM
[16] = biological target: T1, Tyrosinase (Agaricus bisporus); assay: Inhibition of diphenolase activity of mushroom tyrosinase at 0.044 mM
[17] = biological target: T1, Tyrosinase (Agaricus bisporus); assay: Inhibition of diphenolase activity of mushroom tyrosinase at 0.034 mM
[18] = biological target: T1, Tyrosinase (Agaricus bisporus); assay: Inhibition of diphenolase activity of mushroom tyrosinase at 0.042 mM
[19] = biological target: T1, Tyrosinase (Agaricus bisporus); assay: Inhibition of diphenolase activity of mushroom tyrosinase at 0.050 mM
[20] = biological target: T1, Tyrosinase (Agaricus bisporus); assay: Inhibition of diphenolase activity of mushroom tyrosinase at 0.083 mM

SMILES: C[N+]1(C)CCC[C@@H]1C(=O)[O-]
- inhibition [1]: 11.1%

SMILES: COc1cc(-c2oc3cc(O)cc(O)c3c(=O)c2O[C@@H]2O[C@H](CO[C@@H]3O[C@@H](C)[C@H](O)[C@@H](O)[C@H]3O)[C@@H](O)[C@H](O)[C@H]2O)ccc1O
- inhibition [2]: 13.1%

SMILES: C[C@@H]1O[C@@H](OC[C@H]2O[C@@H](Oc3c(-c4ccc(O)cc4)oc4cc(O)cc(O)c4c3=O)[C@H](O)[C@@H](O)[C@@H]2O)[C@H](O)[C@H](O)[C@H]1O
- inhibition [3]: 16.1%

SMILES: COc1ccc(CCO[C@@H]2O[C@H](CO)[C@@H](OC(=O)/C=C/c3ccc(O)c(OC)c3)[C@H](O[C@@H]3O[C@@H](C)[C@H](O)[C@@H](O)[C@H]3O)[C@H]2O)cc1O
- inhibition [4]: 20.6%

SMILES: COc1ccc(CCO[C@@H]2O[C@H](CO[C@H]3O[C@@H](CO)[C@H](O)[C@@H](O)[C@@H]3O)[C@@H](OC(=O)/C=C/c3ccc(O)c(OC)c3)[C@H](O[C@H]3O[C@H](C)[C@@H](O)[C@H](O)[C@@H]3O)[C@H]2O)cc1O
- inhibition [5]: 22.6%

SMILES: COc1cc(/C=C/C(=O)O)ccc1O
- inhibition [6]: 6.68%

SMILES: COc1cc(-c2oc3cc(O)cc(O)c3c(=O)c2O[C@@H]2O[C@H](COC(C)=O)[C@@H](O)[C@H](O)[C@H]2O)ccc1O
- inhibition [7]: 23.3%

SMILES: O=c1cc(-c2ccc(O)c(O)c2)oc2cc(O[C@@H]3O[C@H](CO)[C@@H](O)[C@H](O)[C@H]3O)cc(O)c12
- inhibition [8]: 27.4%

SMILES: O=c1cc(-c2ccc(O)cc2)oc2c(O)c(O)c(O)c(O)c12
- inhibition [9]: 5.21%

SMILES: O=C(/C=C/c1ccc(O)cc1)OC[C@H]1O[C@@H](Oc2c(-c3ccc(O)cc3)oc3cc(O)cc(O)c3c2=O)[C@H](O)[C@@H](O)[C@@H]1O
- inhibition [10]: 14.7%
- inhibition [3]: 30.2%

SMILES: COc1cc([C@@H]2OC[C@@H](Cc3ccc(O[C@H]4O[C@@H](CO)[C@H](O)[C@@H](O)[C@@H]4O)c(OC)c3)[C@H]2CO)ccc1O
- inhibition [7]: 12.3%

SMILES: C[C@@H]1O[C@@H](O[C@@H]2[C@@H](O)[C@H](OCCc3ccc(O)c(O)c3)O[C@H](CO)[C@H]2OC(=O)/C=C/c2ccc(O)c(O)c2)[C@H](O)[C@H](O)[C@H]1O
- inhibition [2]: 25.8%

SMILES: COc1cc(/C=C/C(=O)O[C@H]2[C@H](O[C@@H]3O[C@@H](C)[C@H](O)[C@@H](O)[C@H]3O)[C@@H](O)[C@H](OCCc3ccc(O)c(O)c3)O[C@@H]2CO)ccc1O
- inhibition [11]: 21.6%

SMILES: O=c1c(O)c(-c2ccc(O)c(O)c2)oc2cc(O)cc(O)c12
- inhibition [11]: 49.7%

SMILES: COc1ccc(CCO[C@@H]2O[C@H](CO[C@@H]3O[C@H](CO)[C@@H](O)[C@H](O)[C@H]3O)[C@@H](OC(=O)/C=C/c3ccc(O)c(OC)c3)[C@H](O[C@@H]3O[C@@H](C)[C@H](O)[C@@H](O)[C@H]3O[C@@H]3OC[C@@H](O)[C@@H](O)[C@@H]3O)[C@H]2O)cc1O
- inhibition [6]: 13.2%

SMILES: COc1cc(-c2oc3cc(O)cc(O)c3c(=O)c2O[C@@H]2O[C@H](COC(=O)/C=C/c3ccc(O)cc3)[C@@H](O)[C@H](O)[C@H]2O)ccc1O
- inhibition [2]: 21.1%

SMILES: O=c1cc(-c2ccc(O)cc2)oc2cc(O)cc(O)c12
- inhibition [12]: 14%

SMILES: COc1ccc(-c2cc(=O)c3c(OC)c(OC)c(OC)cc3o2)cc1
- inhibition [13]: 3.23%

SMILES: C[C@@H]1O[C@@H](O[C@@H]2[C@@H](O)[C@H](OCCc3ccc(O)c(O)c3)O[C@H](CO[C@@H]3O[C@H](CO)[C@@H](O)[C@H](O)[C@H]3O)[C@H]2OC(=O)/C=C/c2ccc(O)c(O)c2)[C@H](O[C@@H]2OC[C@@H](O)[C@@H](O)[C@@H]2O)[C@H](O)[C@H]1O
- inhibition [14]: 12.4%

SMILES: O=C(O)/C=C/c1ccc(O)cc1
- inhibition [5]: 8.87%

SMILES: O=C(/C=C/c1ccc(O)c(O)c1)O[C@@H]1C[C@](O)(C(=O)O)C[C@@H](O)[C@H]1O
- inhibition [13]: 7.78%

SMILES: C[C@H]1O[C@H](OC[C@H]2O[C@@H](Oc3c(-c4ccc(O)cc4)oc4cc(O)c(O)c(O)c4c3=O)[C@H](O)[C@@H](O)[C@@H]2O)[C@@H](O)[C@@H](O)[C@@H]1O
- inhibition [9]: 27.1%

SMILES: COc1cc(-c2oc3cc(O)cc(O)c3c(=O)c2O[C@@H]2O[C@H](CO)[C@@H](O)[C@H](O)[C@H]2O)ccc1O
- inhibition [15]: 24.2%

SMILES: COc1cc(-c2cc(=O)c3c(O)cc(O[C@@H]4O[C@H](COC(=O)/C=C/c5ccc(O)cc5)[C@@H](O)[C@H](OC(=O)/C=C/c5ccc(O)cc5)[C@H]4O)cc3o2)ccc1O
- inhibition [16]: 15.6%

SMILES: O=C(/C=C/c1ccc(O)cc1)OC[C@H]1O[C@@H](Oc2c(-c3ccc(O)c(O)c3)oc3cc(O)cc(O)c3c2=O)[C@H](O)[C@@H](O)[C@@H]1O
- inhibition [9]: 21.9%

SMILES: C[C@@H]1O[C@@H](OC[C@H]2O[C@@H](Oc3c(-c4ccc(O)c(O)c4)oc4cc(O)cc(O)c4c3=O)[C@H](O)[C@@H](O)[C@@H]2O)[C@H](O)[C@H](O)[C@H]1O
- inhibition [9]: 12.7%

SMILES: C[C@H]1O[C@H](O[C@@H]2[C@@H](O)[C@H](O)O[C@H](CO)[C@H]2OC(=O)/C=C/c2ccc(O)c(O)c2)[C@@H](O)[C@@H](O)[C@@H]1O
- inhibition [17]: 10.9%

SMILES: O=c1c(O[C@@H]2O[C@H](CO)[C@@H](O)[C@H](O)[C@H]2O)c(-c2ccc(O)cc2)oc2cc(O)cc(O)c12
- inhibition [8]: 24.2%

SMILES: COc1cc(/C=C/C(=O)O[C@H]2[C@H](O[C@@H]3O[C@@H](C)[C@H](O)[C@@H](O)[C@H]3O[C@@H]3OC[C@@H](O)[C@@H](O)[C@@H]3O)[C@@H](O)[C@H](OCCc3ccc(O)c(OC)c3)O[C@@H]2CO)ccc1O
- inhibition [18]: 17.3%

SMILES: C[C@@H]1O[C@@H](O[C@@H]2[C@@H](O)[C@H](OCCc3ccc(O)c(O)c3)O[C@H](CO)[C@H]2OC(=O)/C=C/c2ccc(O)c(O)c2)[C@H](O[C@@H]2OC[C@@H](O)[C@@H](O)[C@@H]2O)[C@H](O)[C@H]1O
- inhibition [16]: 12%

SMILES: COc1ccc(-c2cc(=O)c3c(OC)c(O)c(OC)cc3o2)cc1
- inhibition [19]: 4.24%

SMILES: COc1cc(/C=C/C(=O)O[C@H]2[C@H](O[C@H]3O[C@H](C)[C@@H](O)[C@H](O)[C@@H]3O)[C@@H](O)[C@H](OCCc3ccc(O)c(OC)c3)O[C@@H]2CO[C@H]2OCC(O)(CO)[C@@H]2O)ccc1O (stereo partly specified)
- inhibition [18]: 12.7%

SMILES: COc1cc(-c2cc(=O)c3c(O)cc(O)cc3o2)ccc1O
- inhibition [20]: 16.4%

SMILES: COc1cc(C[C@@H]2CO[C@@H](c3ccc(O[C@H]4O[C@@H](CO)[C@H](O)[C@@H](O)[C@@H]4O)c(OC)c3)[C@@H]2CO)ccc1O
- inhibition [7]: 17.7%

SMILES: O=C(O)CC(OC(=O)/C=C/c1ccc(O)c(O)c1)C(=O)O (stereo unspecified)
- inhibition [3]: 4.62%

SMILES: COc1cc(/C=C/C(=O)O[C@H]2[C@H](O[C@@H]3O[C@@H](C)[C@H](O)[C@@H](O)[C@H]3O[C@@H]3OC[C@@H](O)[C@@H](O)[C@@H]3O)[C@@H](O)[C@H](OCCc3ccc(O)c(O)c3)O[C@@H]2CO[C@@H]2O[C@H](CO)[C@@H](O)[C@H](O)[C@H]2O)ccc1O
- inhibition [14]: 15.5%

SMILES: COc1cc(C[C@@H]2CO[C@@H](c3ccc(O[C@H]4O[C@@H](CO)[C@H](O)[C@@H](O)[C@@H]4O)c(OC)c3)[C@@H]2CO)ccc1O[C@H]1O[C@@H](CO)[C@H](O)[C@@H](O)[C@@H]1O
- inhibition [13]: 11.1%

SMILES: COc1ccc(-c2cc(=O)c3c(O)c(O)c(OC)cc3o2)cc1
- inhibition [2]: 2.78%

SMILES: C[C@H]1O[C@H](O[C@@H]2[C@@H](O)[C@H](OCCc3ccc(O)c(O)c3)O[C@H](CO[C@H]3O[C@@H](CO)[C@H](O)[C@@H](O)[C@@H]3O)[C@H]2OC(=O)/C=C/c2ccc(O)c(O)c2)[C@@H](O)[C@@H](O)[C@@H]1O
- inhibition [18]: 17.5%

SMILES: COc1ccc(CCO[C@@H]2O[C@H](CO)[C@@H](OC(=O)/C=C/c3ccc(O)c(OC)c3)[C@H](O[C@@H]3O[C@@H](C)[C@H](O)[C@@H](O)[C@H]3O[C@@H]3OC[C@@H](O)[C@@H](O)[C@@H]3O)[C@H]2O)cc1O
- inhibition [18]: 9.48%
